Values joined by “and” are separate entries in the source; they are usually repeats but may differ in a detail not shown here. Equal values may be shown once. Active and inactive are the calls of the source.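 The calls were made as follows: active = IC50 no higher than ten times the top tested dose; inconclusive = flat fit with 30 to 70% inhibition, or poor fit; inactive = IC50 above ten times the top dose.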
tested on: not listed separately; experiment: growth modulation of Clostridium difficile isolate – OD600, 9-point, retest, dose response (AID 1224920); details: Clostridium difficile clinical isolate growth, OD600, 24 h; at 120 µM (top of the series);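 also: inhibitors lower culture turbidity so OD600 falls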;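 as to activity change, negative = inhibition: plate controls were DMSO for no effect and levofloxacin control for full effect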

Row | Compound | activity change, negative = inhibition
1 | CC(=O)NC[C@H]1[C@H](c2ccc(-c3cccc(F)c3)cc2)[C@@H](CO)N1C(C)=O | -18.5% (inactive)
2 | COc1ccc2c3c(n(C)c2c1)[C@H](CO)N(C(=O)Cc1ccccc1)CC31CCN(C)CC1 | 8.89% (inactive)
3 | CN1c2ccc(-c3ccc(F)cc3)cc2[C@H]2[C@H](CCN2C(=O)Nc2ccc(F)cc2)[C@H]1CO | 43.1% (inactive)
4 | CC(=O)N1[C@@H](CO)[C@H](c2ccccc2)[C@@H]1CN(C)C(=O)CN1CCOCC1 | -5.04% (inactive)
5 | O=S(=O)(c1ccc(F)cc1)N1CCCCN2[C@@H](CO)[C@@H](c3ccc(-c4ccccc4)cc3)[C@@H]2C1 | 0.278% (inactive)

same assay, conditions: Clostridium difficile clinical isolate growth, OD600, 24 h; at 135 µM (top of the series)

Row | Compound | activity change, negative = inhibition
6 | CC(=O)N(C)C[C@@H]1[C@@H](c2ccc(-c3ccccc3F)cc2)[C@@H](CO)N1C(C)=O | -15.6% (inactive)

tested on: Clostridium difficile clinical isolate growth, OD600, 24 h; experiment: as above; details: not given

Row | Compound | IC50
7 | COc1cccc(-c2ccc(C3[C@H]4CNC[C@@H]3N4Cc3ccc(F)cc3)cc2)c1 (stereo partly drawn) | 11.9 µM
8 | OC[C@H]1Nc2ccc(-c3ccc(F)cc3)cc2[C@@H]2[C@H]1CCN2Cc1ccc(F)cc1 | 26.8 µM
9 | COc1ccc(NC(=O)N2CCCCN3[C@H](CO)[C@@H](c4ccc(C#Cc5ccccc5)cc4)[C@H]3C2)cc1 | 25.7 µM
10 | O=C(Nc1ccccc1F)N1C[C@@H]2N[C@H](C1)C2c1ccc(/C=C/c2ccccc2)cc1 (stereo partly drawn) | 12.5 µM
11 | Cc1cccc(S(=O)(=O)N2C[C@@H]3N[C@H](C2)C3c2ccc(-c3ccccc3C)cc2)c1 (stereo partly drawn) | 12.5 µM
12 | Cc1cccc(-c2ccc(C3[C@@H]4CN(C(=O)Nc5ccc(C(F)(F)F)cc5)C[C@H]3N4)cc2)c1 (stereo partly drawn) | 2.73 µM and 2.52 µM
13 | C(=C\c1ccc(C2[C@@H]3CN(Cc4nccs4)C[C@H]2N3)cc1)/c1ccccc1 (stereo partly drawn) | 16.7 µM and 67.5 µM
14 | O=C(NC1CCCCC1)N1C[C@@H]2N[C@H](C1)C2c1ccc(-c2cccc(F)c2)cc1 (stereo partly drawn) | 61.2 µM
15 | N#Cc1ccc(-c2ccc3c(c2)[C@H]2[C@H](CCN2Cc2ccc4c(c2)OCO4)[C@H](CO)N3)cc1 | 23.4 µM
16 | Cc1ccc(-c2ccc([C@H]3[C@@H](CO)N4CCCCN(S(=O)(=O)c5cccc(C)c5)C[C@H]34)cc2)cc1 | 13.7 µM
17 | Cc1ccccc1-c1ccc(C2[C@@H]3CN(C(=O)C4CCCCC4)C[C@H]2N3)cc1 (stereo partly drawn) | 60.7 µM
18 | O=C(c1ccc2c(c1)OCO2)N1C[C@@H]2N[C@H](C1)C2c1ccc(/C=C/c2ccccc2)cc1 (stereo partly drawn) | 12.4 µM
19 | COc1cc(CN2[C@@H]3CNC[C@H]2C3c2ccc(-c3ccccc3)cc2)cc(OC)c1 (stereo partly drawn) | 14.8 µM
20 | N#Cc1cccc(-c2ccc(C3[C@@H]4CN(Cc5ccccc5)C[C@H]3N4)cc2)c1 (stereo partly drawn) | 79.6 µM
21 | O=C(Nc1cccc(F)c1)N1CCCCN2[C@H](CO)[C@H](c3ccc(-c4ccccc4F)cc3)[C@H]2C1 | 24.5 µM
22 | Cc1ccccc1-c1ccc(C2[C@H]3CNC[C@@H]2N3S(=O)(=O)c2ccccc2C)cc1 (stereo partly drawn) | 31.8 µM
23 | Fc1cccc(-c2ccc(C3[C@H]4CNC[C@@H]3N4Cc3ccccc3F)cc2)c1 (stereo partly drawn) | 60.5 µM
24 | O=C(Nc1ccc(Cl)cc1)N1[C@@H]2CNC[C@H]1C2c1ccc(-c2ccccc2)cc1 (stereo partly drawn) | 60.4 µM
25 | O=C(C[C@H]1CC[C@H]2[C@@H](COC[C@H](O)CN2C(=O)Nc2cc(Cl)cc(Cl)c2)O1)N1CCOCC1 | 15 µM
26 | O=S(=O)(c1ccccc1F)N1C[C@@H]2N[C@H](C1)C2c1ccc(/C=C/c2ccccc2)cc1 (stereo partly drawn) | 19.4 µM
27 | O=C(C[C@@H]1CC[C@@H]2[C@H](COC[C@@H](O)CN2C(=O)Nc2ccc(Cl)c(Cl)c2)O1)NC1CCC1 | 5.89 µM
28 | COc1ccc(-c2ccc(C3[C@H]4CNC[C@@H]3N4Cc3cc(OC)cc(OC)c3)cc2)cc1 (stereo partly drawn) | 11.1 µM
29 | Cc1ccc(-c2ccc(C3[C@@H]4CN(Cc5cccc(F)c5)C[C@H]3N4)cc2)cc1 (stereo partly drawn) | 2.8 µM and 12.6 µM
30 | O=C(Nc1ccc(F)cc1)N1C[C@@H]2N[C@H](C1)C2c1ccc(-c2ccccc2F)cc1 (stereo partly drawn) | 36.7 µM and 57.5 µM
31 | N#Cc1ccc(-c2ccc(C3[C@@H]4CN(C(=O)Nc5ccc(C(F)(F)F)cc5)C[C@H]3N4)cc2)cc1 (stereo partly drawn) | 29.7 µM
32 | N#Cc1cccc(-c2ccc(C3[C@@H]4CN(Cc5ccccc5F)C[C@H]3N4)cc2)c1 (stereo partly drawn) | 28.6 µM and 26.1 µM
33 | O=C(C[C@H]1CC[C@@H]2[C@H](COC[C@H](O)CN2C(=O)Nc2ccc(C(F)(F)F)cc2)O1)NC1Cc2ccccc2C1 | 36.6 µM
